Experimental data: patent US11534441B2, “MAP4K1 inhibitors” (Blueprint Medicines Corporation, priority 2020, dated 2022)

Experiments:
[1] = molecular target: MAP4K1 (HPK1) (Homo sapiens (Human), UniProt Q92918); assay: MAP4K1 (HPK1) biochemical enzymatic activity, electrophoretic mobility shift (EZReader 2), ATP at APPKM (26 μM)
Method in brief: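 Phosphorylated and unphosphorylated peptide were separated electrophoretically, and the product/substrate peak ratio served as readout. Reactions held 0.1-15 nM HPK1, 1.5 μM fluorescent peptide and 26 μM ATP (apparent Km) in pH 7.5 HEPES buffer with MgCl2 and DTT. Compounds were tested as 4-fold, 10-point dilutions in 1% DMSO for 60-180 min at 25° C, then quenched with EDTA.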

[2] = test system: expanded CD3+ T cells; assay: T cell enhancement of cytokines: IL2 measurement (HTRF) in expanded CD3+ T cells stimulated with anti-CD3/anti-CD28; assay type: cell-based, human; conditions: IL-2 measurement
Method in brief: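 Healthy-donor T cells (95-98% CD3+) expanded 10-14 days with IL2 and CD3/CD28 beads, then cryopreserved. 100K cells/well in X-VIVO 10 serum-free medium were stimulated with plate-bound anti-CD3 plus soluble anti-CD28 with compound at various concentrations for 24 h. Secreted IL2 measured by HTRF after 24 h antibody incubation.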

[3] = Homo sapiens, T-cell, class designation
[4] = Homo sapiens, T-cell, numeric value

Sequence of MAP4K1 (HPK1) (Q92918 whole entry): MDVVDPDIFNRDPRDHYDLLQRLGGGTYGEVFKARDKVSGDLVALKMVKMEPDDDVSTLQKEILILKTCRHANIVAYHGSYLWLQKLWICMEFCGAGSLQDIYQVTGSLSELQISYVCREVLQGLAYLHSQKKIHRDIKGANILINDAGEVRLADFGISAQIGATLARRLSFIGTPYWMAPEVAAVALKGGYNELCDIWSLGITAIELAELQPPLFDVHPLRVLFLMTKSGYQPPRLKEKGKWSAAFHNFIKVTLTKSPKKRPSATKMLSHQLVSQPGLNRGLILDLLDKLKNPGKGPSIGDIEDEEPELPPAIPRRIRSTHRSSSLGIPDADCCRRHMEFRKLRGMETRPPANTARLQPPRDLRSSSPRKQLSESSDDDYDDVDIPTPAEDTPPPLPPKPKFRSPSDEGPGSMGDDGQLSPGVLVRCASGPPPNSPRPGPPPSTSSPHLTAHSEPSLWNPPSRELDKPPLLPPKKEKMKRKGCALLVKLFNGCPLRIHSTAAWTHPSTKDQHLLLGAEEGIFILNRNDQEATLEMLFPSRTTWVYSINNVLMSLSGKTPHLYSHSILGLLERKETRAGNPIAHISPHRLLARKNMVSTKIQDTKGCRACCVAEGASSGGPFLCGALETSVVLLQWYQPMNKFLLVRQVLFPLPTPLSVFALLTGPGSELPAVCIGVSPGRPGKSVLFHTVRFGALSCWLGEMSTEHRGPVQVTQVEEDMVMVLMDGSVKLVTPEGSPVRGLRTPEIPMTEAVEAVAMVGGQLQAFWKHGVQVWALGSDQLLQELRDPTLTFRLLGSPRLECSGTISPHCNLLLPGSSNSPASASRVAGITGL

SMILES | IC50 ([1]; class designation) [nM] | IC50 ([1]; numeric value) [nM] | EC50 ([2]; class designation) [nM] | EC50 ([2]; numeric value) [nM] | EC50 [2, 3] [nM] | EC50 [2, 4] [nM]
C[C@@H]1c2nc(Nc3cc4c([C@](C)(N)C5CC5)cnc(OC5(C)CC5)c4cn3)ccc2C(=O)OC1(C)C [Compound 91] | < 0.3 | 0.1 | < 35 | 15.1 |  | 
CC[C@](C)(N)c1cnc(OC2(C)CC2)c2cnc(Nc3ccc4c(n3)[C@@H](C)[C@@H](C)OC4=O)cc12 [Compound 92] | < 0.3 | 0.25 | < 35 | 15.4 |  | 
C[C@@H]1c2nc(Nc3cc4c([C@](C)(N)C5CC5)cnc(OC5(C)CC5)c4cn3)ccc2C(=O)O[C@@H]1C [Compound 94] | < 0.3 | 0.14 | < 35 | 23.5 |  | 
CC[C@@](C)(N)c1cnc(OC2CC2)c2cnc(Nc3ccc4c(n3)[C@@H](C)[C@@H](C)OC4=O)cc12 [Compound 96] | < 0.3 |  |  |  | < 35 | 9.4
COc1ncc([C@](C)(N)C2CC2)c2cc(Nc3ccc4c(n3)[C@@H](C)C(C)(C)OC4=O)ncc12 [Compound 101] | < 0.3 | 0.11 | < 35 | 20.8 |  | 
COc1ncc([C@@](C)(N)C2CC2)c2cc(Nc3ccc4c(n3)[C@@H](C)C(C)(C)OC4=O)ncc12 [Compound 102] | 1.1 to 10 | 1.87 | < 35 | 28.7 |  | 
COc1ccc(C(C)(C)N)c2cc(Nc3ccc4c(n3)CC(C)(C)OC4=O)ncc12 [Compound 103] | < 0.3 | 0.11 |  |  | < 35 | 3.1
CC(C)(N)c1cnc(OC2CC2)c2cnc(Nc3ccc4c(n3)C(C)(C)OC4=O)cc12 [Compound 105] | 1.1 to 10 | 2.09 |  |  | 45.1 to 55 | 50.6
C[C@@H]1OC(=O)c2ccc(Nc3cc4c(C(C)(C)N)cnc(NC5CC5)c4cn3)nc2[C@H]1C [Compound 109] | < 0.3 | 0.21 |  |  | < 35 | 9.8
CC[C@@](C)(N)c1cnc(OC2CC2)c2cnc(Nc3ccc4c(n3)C(C)(C)OC4=O)cc12 [Compound 110] | 0.31 to 1 | 0.55 | < 35 | 33.9 |  | 
CC[C@](C)(N)c1cnc(OC2CC2)c2cnc(Nc3ccc4c(n3)C(C)(C)OC4=O)cc12 [Compound 111] | > 10 | 16.8 | > 55 | 2660 |  | 
CC(C)(N)c1cnc(OC2CC2)c2cnc(Nc3ccc4c(n3)C(C)(C)COC4=O)cc12 [Compound 112] | < 0.3 | 0.23 |  |  | < 35 | 19.6
CC[C@]1(C)OC(=O)c2ccc(Nc3cc4c(C(C)(C)N)cnc(OC5CC5)c4cn3)nc21 [Compound 113] | 0.31 to 1 | 0.58 | < 35 | 32.7 |  | 
CC[C@@]1(C)OC(=O)c2ccc(Nc3cc4c(C(C)(C)N)cnc(OC5CC5)c4cn3)nc21 [Compound 114] | 0.31 to 1 | 0.88 | < 35 | 25.6 |  | 
CC(C)(N)c1cnc(OCC(F)(F)F)c2cnc(Nc3ccnc(C(C)(C)F)n3)cc12 [Compound 115] | > 10 | 7.39 |  |  | > 55 | 232
CC(C)(N)c1cnc(OCC(F)F)c2cnc(Nc3ccc4c(n3)C(C)(C)OC4=O)cc12 [Compound 116] | 1.1 to 10 | 2.14 |  |  | > 55 | 64.9
C[C@@H]1c2nc(Nc3cc4c(C(C)(C)N)cnc(NC5CC5)c4cn3)ccc2C(=O)OC1(C)C [Compound 123] | < 0.3 | 0.2 |  |  | < 35 | 7.6
C[C@@H]1OC(=O)c2ccc(Nc3cc4c(C(C)(C)N)cnc(NC5CCC5)c4cn3)nc2[C@H]1C [Compound 124] | < 0.3 | 0.24 |  |  | < 35 | 7.4

SMILES | IC50 ([1]; class designation) [nM] | IC50 ([1]; numeric value) [nM] | EC50 ([2]; class designation) [nM] | EC50 ([2]; numeric value) [nM] | EC50 [2, 3] [nM] | EC50 [2, 4] [nM]
C[C@H]1OC(=O)c2ccc(Nc3cc4c(C(C)(C)N)cnc(OC5CC5)c4cn3)nc2C1(C)C [Compound 127] | < 0.3 | 0.17 | < 35 | 21 |  | 
CC[C@](C)(N)c1cnc(OC2CC2)c2cnc(Nc3ccc4c(n3)[C@@H](C)[C@H](C)OC4=O)cc12 [Compound 131] | 0.31 to 1 | 0.46 | 35.1 to 45 | 35.2 |  | 
CC[C@](C)(N)c1cnc(OC2CC2)c2cnc(Nc3ccc4c(n3)CC(C)(C)OC4=O)cc12 [Compound 133] | 1.1 to 10 | 5.86 | 45.1 to 55 | 53.8 |  | 
CC1(C)Cc2nc(Nc3cc4c(C(C)(C)N)cnc(OC5(C)CC5)c4cn3)ccc2C(=O)O1 [Compound 135] | 0.31 to 1 | 0.54 |  |  | < 35 | 31.6
CC[C@@](C)(N)c1cnc(OC2CC2)c2cnc(Nc3ccc4c(n3)C(C)(C)COC4=O)cc12 [Compound 136] | 0.31 to 1 | 0.39 | 35.1 to 45 | 40.5 |  | 
CC[C@H]1c2nc(Nc3cc4c(C(C)(C)N)cnc(OC5CC5)c4cn3)ccc2C(=O)O[C@H]1C [Compound 138] | < 0.3 | 0.27 | < 35 | 13.8 |  | 
C[C@@H]1OC(=O)c2ccc(Nc3cc4c(C(C)(C)N)cnc(OC5COC5)c4cn3)nc2[C@H]1C [Compound 141] | 0.31 to 1 | 0.42 |  |  | < 35 | 21.6
CC[C@@](C)(N)c1cnc(OC2CC2)c2cnc(Nc3ccc4c(n3)[C@@H](C)C(C)(C)OC4=O)cc12 [Compound 156] | < 0.3 | 0.1 | < 35 | 13.6 |  | 
CC[C@](C)(N)c1cnc(OC2CC2)c2cnc(Nc3ccc4c(n3)C(C)(C)[C@@H](C)OC4=O)cc12 [Compound 157] | < 0.3 | 0.14 | < 35 | 21.3 |  | 
C[C@@H]1OC(=O)c2ccc(Nc3cc4c(C(C)(C)N)cnc(O[C@H]5CCOC5)c4cn3)nc2[C@H]1C [Compound 159] | 0.31 to 1 | 0.39 |  |  | < 35 | 27.4
C[C@@H]1OC(=O)c2ccc(Nc3cc4c(C(C)(C)N)cnc(OCC(C)(F)F)c4cn3)nc2[C@H]1C [Compound 166] | < 0.3 | 0.25 |  |  | 35.1 to 45 | 40
CC1(C)Cc2nc(Nc3cc4c([C@](C)(N)C5CCC5)cnc(OC5CC5)c4cn3)ccc2C(=O)O1 [Compound 168] | < 0.3 | 0.15 | 35.1 to 45 | 41.3 |  | 
C[C@@H]1OC(=O)c2ccc(Nc3cc4c([C@](C)(N)C5CCC5)cnc(OC5CC5)c4cn3)nc2[C@H]1C [Compound 170] | < 0.3 | 0.07 | < 35 | 6.8 |  | 
CC[C@]1(C)OC(=O)c2ccc(Nc3cc4c(C(C)(C)N)cnc(OCC(F)(F)F)c4cn3)nc21 [Compound 172] | 1.1 to 10 | 4.47 | > 55 | 74.8 |  | 
CC[C@@]1(C)OC(=O)c2ccc(Nc3cc4c(C(C)(C)N)cnc(OCC(F)(F)F)c4cn3)nc21 [Compound 174] | 1.1 to 10 | 2.9 | < 35 | 28.2 |  | 
CC(C)(N)c1cnc(OCC(F)(F)F)c2cnc(Nc3ccnc([C@@H]4CCC[C@@H](O)C4)n3)cc12 [Compound 176] | 0.31 to 1 | 0.8 | < 35 | 20.9 |  | 
C[C@@H]1OC(=O)c2ccc(Nc3cc4c(C(C)(C)N)cnc(OC5CC(F)(F)C5)c4cn3)nc2[C@H]1C [Compound 178] | < 0.3 | 0.29 |  |  | > 55 | 58.7
